Reference: US11884686B2, “Chelate compounds” (priority 2016, dated 2024)
“Also recorded” adds a separate entry of the source.

Legend:
1H NMRD profiles = format: physicochemical; details: 0.01 to 80 MHz, pH 6.9
Description: Both the longitudinal and transverse relaxation times were measured in human serum (BioreclamationIVT, Cat #HMSRM-M) to reflect the efficiency of the Mn(II) based chelates in an environment close to physiological. The relaxivity assessment was carried out at a concentration ranging from 5 to 0 mM Mn(II), at 40° C. using a Minispec Mq benchtop NMR relaxometer (Bruker Instruments, Rheinstetten, Germany) operating at 60 MHz (1.4 T) with an inversion recovery pulse sequence. The longitudinal and transverse relaxivities of the complexes (e.g., r1 and r2 respectively) were calculated by plotting the reciprocal of their relaxation time versus the manganese concentration as determined via ICP-MS (Spectro Arcos FHS12, S/N 10003910 or S/N 12006120) for each Mn(II) based chelates. The dependence of T1 by B0 (i.e., magnetic field) applied was assessed via the acquisition of ^1H Nuclear Magnetic Relaxation Dispersion (NMRD) profiles. […] The temperature was monitored by a VTC91 temperature control unit and maintained by a gas flow. The temperature was determined by previous calibration with a Pt resistance temperature probe. High field relaxivities were measured on a Bruker AVANCE NMR spectrometer at 400 MHz. […]

[1] = Dissociation kinetics via Cu2+ transmetallation (UV-Vis absorbance); format: physicochemical; details: pH = 5.0, CCu2+ 0.004 M, 25° C., 0.2 mM chelate

Structure (SMILES) | 1H NMRD profile (1H NMRD profiles) | kobs1 [1] [min⁻¹]
CN1CCN2Cc3cccc(n3)CN(CC1)C(CCC(=O)N(C)C[C@H](O)[C@@H](O)[C@H](O)[C@H](O)CO)C(=O)[O][Mn][O]C(=O)C2CCC(=O)N(C)C[C@H](O)[C@@H](O)[C@H](O)[C@H](O)CO (stereo partly drawn) [Mn Chelate 4] | only one dispersion in the profile around 1 MHz; also recorded: small r1 hump in the frequency region between 60 and 80 MHz | –
CN1CCN2CC(=O)[O][Mn][O]C(=O)CN(CC1)Cc1cccc(n1)C2 [Prior Art Mn Chelate, reference compound] | only one dispersion in the profile around 1 MHz | 0.032
